Source: patent US9868742B2, “Substituted imidazo[1,2-b]pyridazines, substituted imidazo[1,5-b] pyridazines, related compounds, and their use in the treatment of medical disorders” (Lysosomal Therapeutics Inc., priority 2016, dated 2018)
In brackets after ≈: the same amount, converted by molar mass.

Assay: Compound solubility in water
Format: physicochemical

SMILES | solubility [µg/mL]
Cc1cc(C)c2cnc(C(=O)Nc3ccc(-c4cocn4)cc3)n2n1 | 0.4 (≈ 1.2 µM)
Cc1cc(-c2cccc3ocnc23)nc2c(C(=O)NC(C3CC3)C(F)(F)F)nsc12 (stereo not shown) | 1.1 (≈ 2.54 µM)
Cc1cc(-c2cccnc2)nc2c(C(=O)NC(C3CC3)C(F)(F)F)nsc12 (stereo not shown) | 0.3 (≈ 0.765 µM)
Cc1cc(-c2ccc(F)cc2C#N)nn2c(C(=O)N[C@@H](C3CC3)C(F)(F)F)cnc12 | 1.2 (≈ 2.88 µM)
Cc1cc(-c2ccc3ncn(C)c3c2)nn2c(C(=O)N[C@H](C3CC3)C(F)(F)F)cnc12 [(R)—N-(1-Cyclopropyl-2,2,2-trifluoroethyl)-8-methyl-6-(1-methyl-1H-benzo[d]imidazol-6-yl)imidazo[1,2-b]pyridazine-3-carboxamide] | 1 (≈ 2.33 µM)
C#CC(C)(C)NC(=O)c1cnc2c(C)cc(-c3ccns3)nn12 | 17.2 (≈ 52.9 µM)
Cc1cc(-c2cccc(F)c2)nn2c(C(=O)NC(C)C(F)(F)F)ncc12 (stereo not shown) | 3 (≈ 8.19 µM)
CCCCCO[C@H]1CC[C@H](NC(=O)c2cnc3c(C)cc(C)nn23)CC1 | 3.9 (≈ 10.9 µM)
Cc1cc(-c2cncc(Cl)c2)nn2c(C(=O)N[C@@H](C3CC3)C(F)(F)F)ncc12 [(S)-2-(5-Chloropyridin-3-yl)-N-(1-cyclopropyl-2,2,2-trifluoroethyl)-4-methylimidazo[1,5-b]pyridazine-7-carboxamide] | 0.7 (≈ 1.71 µM)
Cc1cc(-c2cc(C)c3ncc(C(=O)N[C@H](C4CC4)C(F)(F)F)n3n2)sn1 | 3.6 (≈ 9.1 µM)
Cc1cc(N2CCN(C(C)C)C2=O)nn2c(C(=O)NC(C3CC3)C(F)(F)F)cnc12 (stereo not shown) | 18.3 (≈ 43.1 µM)
Cc1nc2cc(-c3cc(C)c4ncc(C(=O)NC(C)C(F)(F)F)n4n3)ccc2o1 (stereo not shown) | 1.5 (≈ 3.72 µM)
Cc1cc(C)c2ncc(C(=O)NC(C)(C)C3CC3)n2n1 | 27.3 (≈ 100 µM)
Cc1cc(-c2cncc(Cl)c2)nn2c(C(=O)N[C@@H](C3CC3)C(F)(F)F)cnc12 | 0.3 (≈ 0.732 µM)
C#CC(NC(=O)c1ncc2c(C)cc(-c3cccc(F)c3)nn12)C(F)(F)F (stereo not shown) [2-(3-Fluorophenyl)-4-methyl-N-(1,1,1-trifluorobut-3-yn-2-yl)imidazo[1,5-b]pyridazine-7-carboxamide] | 0.7 (≈ 1.86 µM)
Cc1cc(-c2cccnc2)nc2c(C(=O)NC(C3CC3)C(F)(F)F)csc12 (stereo not shown) | 0.5 (≈ 1.28 µM)
Cc1cc(C)c2cnc(C(=O)NC(C)(C)C3CC3)n2n1 | 24 (≈ 88.1 µM)
CCCCCO[C@H]1CC[C@H](NC(=O)c2cnc3ccc(Cl)nn23)CC1 | 17 (≈ 46.6 µM)
Cc1cc(-c2ccc(F)cc2C#N)nn2c(C(=O)NC(C3CC3)C(F)(F)F)cnc12 (stereo not shown) | 0.7 (≈ 1.68 µM)
Cc1cc(-c2ccc(F)cc2)nn2c(C(=O)N[C@@H](C)C3CC3)nnc12 | 1 (≈ 2.95 µM)
Cc1cc(-c2cccc(C(N)=O)c2)nc2c(C(=O)NC(C3CC3)C(F)(F)F)nsc12 (stereo not shown) | 1.4 (≈ 3.22 µM)
Cc1cc(C)c2scc(C(=O)NC(C3CC3)C(F)(F)F)c2n1 (stereo not shown) | 0.1 (≈ 0.305 µM)
Cc1cc(-c2ccns2)nn2c(C(=O)NC(C)(C)C3CC3)cnc12 | 6.7 (≈ 19.6 µM)
Cc1cc(-c2ccc(F)cc2)nn2c(C(=O)NC(C)(C)C3CC3)ncc12 | 1.2 (≈ 3.41 µM)

SMILES | solubility [µg/mL]
Cc1cc(C)c2cnc(C(=O)Nc3ccc4c(c3)CCC4)n2n1 | 2.1 (≈ 6.85 µM)
Cc1cc(-c2ccc(F)o2)nn2c(C(=O)NC(C3CC3)C(F)(F)F)cnc12 (stereo not shown) | 0.6 (≈ 1.57 µM)
Cc1cc(-c2ccns2)nn2c(C(=O)NC(C3CC3)C(F)(F)F)cnc12 (stereo not shown) | 0.5 (≈ 1.31 µM)
Cc1cc(-c2cccc(F)c2)nn2c(C(=O)N[C@H](C3CC3)C(F)(F)F)ncc12 [(R)—N-(1-Cyclopropyl-2,2,2-trifluoroethyl)-2-(3-fluorophenyl)-4-methylimidazo[1,5-b]pyridazine-7-carboxamide] | 0.2 (≈ 0.51 µM)
Cc1cc(-c2occc2C#N)nn2c(C(=O)NC(C3CC3)C(F)(F)F)cnc12 (stereo not shown) | 0.7 (≈ 1.8 µM)
Cc1cc(-c2ccc3ocnc3c2)nn2c(C(=O)NC(C3CC3)C(F)(F)F)cnc12 (stereo not shown) | 0.2 (≈ 0.481 µM)
Cc1cc(-c2cccc3ncoc23)nn2c(C(=O)NC(C3CC3)C(F)(F)F)cnc12 (stereo not shown) | 0.3 (≈ 0.722 µM)
Cc1cc(N2CCC(F)(F)C2)nn2c(C(=O)NC(C3CC3)C(F)(F)F)cnc12 (stereo not shown) | 8.2 (≈ 20.3 µM)
Cc1cc(-c2cccc(F)c2)nn2c(C(=O)N[C@@H](C3CC3)C(F)(F)F)ncc12 [(S)—N-(1-Cyclopropyl-2,2,2-trifluoroethyl)-2-(3-fluorophenyl)-4-methylimidazo[1,5-b]pyridazine-7-carboxamide] | 0.2 (≈ 0.51 µM)
Cc1cc(-c2ccc(F)cc2)nn2c(C(=O)N[C@@H](C)C3CC3)ncc12 | 6.9 (≈ 20.4 µM)
Cc1cc(-c2cncc(F)c2)nn2c(C(=O)NC(C3CC3)C(F)(F)F)cnc12 (stereo not shown) | 1.3 (≈ 3.3 µM)
Cc1cc(-c2cccnc2)nc2c(C(=O)NC(C)C3CC3)csc12 (stereo not shown) | 1.4 (≈ 4.15 µM)
Cc1cc(-c2ccc3ocnc3c2)nn2c(C(=O)N[C@@H](C3CC3)C(F)(F)F)cnc12 | 0.5 (≈ 1.2 µM)
Cc1cc(-c2cccc(C(N)=O)c2)nc2c(C(=O)NC(C3CC3)C(F)(F)F)csc12 (stereo not shown) | 0.4 (≈ 0.923 µM)
Cc1cc(-c2ccc(F)cc2)nn2c(C(=O)NC(C)(C)C3CC3)cnc12 | 0.9 (≈ 2.55 µM)
Cc1cc(-c2ccc(F)cc2)nn2c(C(=O)NC(C)C(F)(F)F)ncc12 (stereo not shown) | 3.2 (≈ 8.74 µM)
C#Cc1ccc(NC(=O)c2ncc3c(C)cc(C)nn23)cc1 | 1.8 (≈ 6.2 µM)
CCCCCCOC1CCC(NC(=O)c2cnc3c(C)cc(Cl)nn23)CC1 (stereo not shown) | 3.1 (≈ 7.89 µM)
Cc1cc(C#N)c(-c2cc(C)c3ncc(C(=O)N[C@@H](C)C(F)(F)F)n3n2)o1 | 0.1 (≈ 0.265 µM)
Cc1cc(-c2ccc(F)cc2)nn2c(C(=O)NC(C3CC3)C(F)(F)F)ncc12 (stereo not shown) | 0.2 (≈ 0.51 µM)
Cc1cc(-c2cccc(F)c2)nn2c(C(=O)NC(C)(C)C3CC3)ncc12 | 8 (≈ 22.7 µM)
Cc1cc(-c2cncc(Cl)c2)nn2c(C(=O)N[C@H](C3CC3)C(F)(F)F)cnc12 | 0.3 (≈ 0.732 µM)
Cc1cc(N2CCCC(F)(F)C2)nn2c(C(=O)N[C@@H](C3CC3)C(F)(F)F)cnc12 | 1.9 (≈ 4.55 µM)
Cc1cc(-c2ccccn2)nc2c(C(=O)NC(C3CC3)C(F)(F)F)nsc12 (stereo not shown) | 0.7 (≈ 1.78 µM)

Next, values leading:

solubility [µg/mL] | SMILES
1.8 (≈ 5.4 µM) | Cc1cc(C)c2ncc(C(=O)Nc3ccc(-c4cocn4)cc3)n2n1
8.8 (≈ 27.5 µM) | Cc1cc(C)c2ncc(C(=O)NC3CCCc4ccccc43)n2n1 (stereo not shown)
0.5 (≈ 1.38 µM) | Cc1cc(-c2cccc(F)c2C#N)nn2c(C(=O)N[C@@H](C)C3CC3)cnc12 [(S)-6-(2-Cyano-3-fluorophenyl)-N-(1-cyclopropylethyl)-8-methylimidazo[1,2-b]pyridazine-3-carboxamide]
0.1 (≈ 0.25 µM) | Cc1cc(-c2ccccc2C#N)nn2c(C(=O)NC(C3CC3)C(F)(F)F)cnc12 (stereo not shown)
29.6 (≈ 96 µM) | CCC(NC(=O)c1ncc2c(C)cc(C)nn12)c1ccccc1 (stereo not shown)
17.5 (≈ 53.7 µM) | O=C(NC1CCCc2ccccc21)c1cnc2ccc(Cl)nn12 (stereo not shown)
2.2 (≈ 5.43 µM) | COc1cccc(-c2cc(C)c3ncc(C(=O)NC(C4CC4)C(F)(F)F)n3n2)n1 (stereo not shown)
16.8 (≈ 42.8 µM) | CCCCCCOC1CCC(NC(=O)c2cnc3cc(C)c(Cl)nn23)CC1 (stereo not shown)
4.4 (≈ 11.3 µM) | Cc1cc(-c2cccc3ncoc23)nn2c(C(=O)NC(C)C(F)(F)F)cnc12 (stereo not shown)
1.6 (≈ 3.85 µM) | Cc1cc(-c2cccc3ocnc23)nn2c(C(=O)NC(C3CC3)C(F)(F)F)cnc12 (stereo not shown)
1.2 (≈ 3.08 µM) | Cc1cc(-c2ccc3ocnc3c2)nn2c(C(=O)N[C@@H](C)C(F)(F)F)cnc12
1.3 (≈ 3.34 µM) | Cc1cc(-c2ccc3ocnc3c2)nn2c(C(=O)NC(C)C(F)(F)F)cnc12 (stereo not shown)
3.9 (≈ 9.97 µM) | Cc1cc(-c2ccc(F)cc2C#N)nn2c(C(=O)NC(C)C(F)(F)F)cnc12 (stereo not shown)
2.7 (≈ 7.17 µM) | COc1cccc(-c2cc(C)c3ncc(C(=O)NC(C4CC4)C4CC4)n3n2)c1
15.4 (≈ 49.1 µM) | CCC(NC(=O)c1cnc2ccc(Cl)nn12)c1ccccc1 (stereo not shown)
1.9 (≈ 5.39 µM) | Cc1cc(-c2cccc(F)c2)nn2c(C(=O)NC(C)(C)C3CC3)cnc12
0.03 (≈ 0.0765 µM) | Cc1cc(-c2cccc(F)c2)nn2c(C(=O)NC(C3CC3)C(F)(F)F)cnc12 (stereo not shown)
2.6 (≈ 7.15 µM) | Cc1cc(-c2ccc(F)cc2C#N)nn2c(C(=O)N[C@@H](C)C3CC3)cnc12
1.4 (≈ 3.87 µM) | Cc1cc(-c2ccc3ocnc3c2)nn2c(C(=O)NC(C)C3CC3)cnc12 (stereo not shown)
1.9 (≈ 4.86 µM) | Cc1cc(-c2ccc(F)cc2C#N)nn2c(C(=O)N[C@H](C)C(F)(F)F)cnc12

solubility [µg/mL] | SMILES
0.7 (≈ 2.24 µM) | O=C(Nc1ccc2c(c1)CCC2)c1cnc2ccc(Cl)nn12
1.5 (≈ 4.59 µM) | Cc1cc2ncc(C(=O)Nc3ccc4c(c3)CCC4)n2nc1Cl
3.5 (≈ 9.12 µM) | Cc1cc(-c2cccc(Cl)n2)nn2c(C(=O)NC(C)C(F)(F)F)cnc12 (stereo not shown)
0.2 (≈ 0.501 µM) | Cc1cc(-c2cccc(C#N)c2)nn2c(C(=O)NC(C3CC3)C(F)(F)F)cnc12 (stereo not shown)
1.4 (≈ 3.46 µM) | COc1cccc(-c2cc(C)c3ncc(C(=O)NC(C4CC4)C(F)(F)F)n3n2)c1 (stereo not shown)
1.1 (≈ 2.81 µM) | Cc1cc(-c2cccc(F)c2C#N)nn2c(C(=O)N[C@@H](C)C(F)(F)F)cnc12 [(S)-6-(2-Cyano-3-fluorophenyl)-8-methyl-N-(1,1,1-trifluoropropan-2-yl)imidazo[1,2-b]pyridazine-3-carboxamide]
14.6 (≈ 44.5 µM) | CCC(NC(=O)c1cnc2cc(C)c(Cl)nn12)c1ccccc1 (stereo not shown)
7.2 (≈ 21.5 µM) | Cc1cc(C)c2ncc(C(=O)NC3(C)CCCc4ccccc43)n2n1 (stereo not shown)
0.3 (≈ 0.918 µM) | Cc1cc(Cl)nn2c(C(=O)Nc3ccc4c(c3)CCC4)cnc12
0.3 (≈ 1.03 µM) | C#Cc1ccc(NC(=O)c2cnc3c(C)cc(C)nn23)cc1
0.9 (≈ 2.94 µM) | Cc1cc(C)c2ncc(C(=O)Nc3ccc4c(c3)CCC4)n2n1
18.8 (≈ 61 µM) | CCC(NC(=O)c1cnc2c(C)cc(C)nn12)c1ccccc1 (stereo not shown)
15 (≈ 50.6 µM) | C#Cc1ccc(NC(=O)c2cnc3ccc(Cl)nn23)cc1
3.6 (≈ 10.6 µM) | Cc1cc2ncc(C(=O)NC3CCCc4ccccc43)n2nc1Cl (stereo not shown)
1 (≈ 2.57 µM) | Cc1cc(-c2ccc3ocnc3c2)nn2c(C(=O)N[C@H](C)C(F)(F)F)cnc12
6.5 (≈ 19.2 µM) | Cc1cc(-c2ccc(F)cc2)nn2c(C(=O)N[C@@H](C)C3CC3)cnc12
1.9 (≈ 4.86 µM) | Cc1cc(-c2ccc(F)cc2C#N)nn2c(C(=O)N[C@@H](C)C(F)(F)F)cnc12
1.9 (≈ 5.19 µM) | Cc1cc(-c2cccc(F)c2)nn2c(C(=O)NC(C)C(F)(F)F)cnc12 (stereo not shown)
38.4 (≈ 120 µM) | Cc1cc(C)c2cnc(C(=O)NC3CCCc4ccccc43)n2n1 (stereo not shown)
2.3 (≈ 6.33 µM) | Cc1cc(-c2ccc(F)cc2C#N)nn2c(C(=O)N[C@H](C)C3CC3)cnc12
